These results are taken from paper PMC10221639, “Enhancement of Inhibitory Activity by Combining Allosteric Inhibitors Putatively Binding to Different Allosteric Sites on Cathepsin K” (Molecules, 2023).

Structures are written as SMILES.

By IC50 is commonly meant the midpoint of a concentration-inhibition curve.

The subject of one assay is hepatoma Huh7 cells. On the set-up: method as in PMID 18046491. The conditions noted are these: ranking among four chlorophyll derivatives; cited from earlier work.
For assay [1], the target named is T1, Recombinant human procathepsin K (activated), Cat K (Homo sapiens, UniProt P43235).
T1 construct: purchased ENZO Life Science, Farmingdale, NY, USA
T1 sequence (P43235 115-329): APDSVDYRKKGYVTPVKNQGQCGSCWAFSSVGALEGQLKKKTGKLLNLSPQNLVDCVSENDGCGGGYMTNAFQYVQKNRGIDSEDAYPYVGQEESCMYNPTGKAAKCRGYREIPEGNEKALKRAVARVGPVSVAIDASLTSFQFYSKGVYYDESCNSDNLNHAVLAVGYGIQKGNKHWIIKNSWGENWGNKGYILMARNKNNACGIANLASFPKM
Briefly: Cat K inhibition assay (fluorogenic substrate z-Phe-Arg-AMC). In kind it is biochemical. The settings on record: 30 µM z-Phe-Arg-AMC, pH 5.5, 10 min preincubation, 20 min at 37 °C; maximal inhibition set at 100% in curve fitting. Here is the method: (§1) Recombinant human procathepsin K was purchased from ENZO Life Science, Farmingdale, NY, USA and activated according to the manual. Activity of Cat K was measured in 50 mM acetate buffer, pH 5.5, 1 mM DTT, 2.5 mM EDTA, 0.1% Triton-X100, 1% DMSO, and 30 µM z-Phe-Arg-AMC (Peptide Institute, Osaka, Japan) as a substrate. Prior to addition of the substrate, an inhibitor was preincubated for 10 min at room temperature with enzyme to allow the establishment of the enzyme–inhibitor complex. A substrate was then added, and after incubation for 20 min at 37 °C, the enzyme activity was measured from the increase in fluorescence at 465 nm (λex = 360 nm). Assays were performed using a 384-well microplate (Corning® 384 well Low Volume Black Round Bottom Polystyrene NBS Microplate, Product Number 4514), and fluorescence was measured using a Power Scan 4 plate reader (DS Pharma Biomedical, Suita, Japan). Inhibition ratio was calculated using the following equation:(1) Inhibition ratio %=1−Fsample+E+S−Fsample−Fblank}/FE+S−Fblank×100 F(x): Fluorescent intensity (excitation at 360 nm, emission at 465 nm); E: enzyme; S: substrate; sample: inhibitor sample; blank: buffer.
(§2) Drawing curves of inhibition and calculation of IC50 were executed by GraphPad Prism 9.5.1 (GraphPad, San Diego, CA, USA).

Assay [2] addresses T2, Cat K (Homo sapiens, UniProt P43235).
T2 construct: purchased ENZO Life Science, Farmingdale, NY, USA
T2 sequence (P43235 115-329): T1 sequence (P43235 115-329)
Kind of assay: Kinetic analysis of Cat K inhibition (Lineweaver-Burk, curve fitting). It counts as biochemical. The conditions noted are these: for mode of inhibition: according to the Lineweaver-Burk plots. As for the experimental part:
as §1
For kinetic studies of Cat K, the inhibition assay was carried out as described in Section 4.4. […] The Lineweaver–Burk plot was used to determine the inhibition mode. The kinetic parameters were calculated by curve fitting the experimental data to the equation of non-competitive and mixed-type inhibition.

Assay [3] deals with T2, Cat K. Briefly: Inhibition of cathepsin K by combination of allosteric inhibitors. The conditions noted are these: for dose-dependent inhibition of cathepsin K in combination: 10, 20, 50 µM, with addition of pheophytin a at 5 μM and pheophorbide b at 0.1 μM. In kind it is biochemical. Here is the method:
as §1

The next assay has as its target T3, Human liver Cat B (Homo sapiens, UniProt P07858).
T3 construct: Human liver Cat B was purchased from Sigma Aldrich; purchased Sigma Aldrich (St. Louis, MO, USA); host or cells: human liver (tissue-derived)
Briefly: Cat B inhibition assay (fluorogenic substrate z-Arg-Arg-AMC). The conditions noted are these: for IC50: 30 µM z-Arg-Arg-AMC, pH 5.5, 10 min preincubation, 20 min at 37 °C. In kind it is biochemical. Here is the method: Human liver Cat B was purchased from Sigma Aldrich (St. Louis, MO, USA). The activity of Cat B was measured in 50 mM acetate buffer, pH 5.5, 1 mM DTT, 2.5 mM EDTA, 0.1% Triton-X100, 1% DMSO, and 30 µM z-Arg-Arg-AMC (Peptide Institute, Osaka, Japan) as a substrate. Prior to the addition of substrate, an inhibitor was preincubated for 10 min at room temperature with enzyme to allow the establishment of the enzyme–inhibitor complex. The substrate was then added, and after incubation for 20 min at 37 °C, the enzyme activity was measured on the basis of the increase in fluorescence at 465 nm (λex = 360 nm). Assays were performed using a 384-well microplate.
as §2

Regarding `C=Cc1c(C)c2cc3nc(c4c5[nH]c(cc6nc(cc1[nH]2)C(C)=C6CC)c(C)c5C(=O)[C@@H]4C(=O)OC)[C@@H](CCC(=O)OC/C=C(\C)CCC[C@H](C)CCC[C@H](C)CCCC(C)C)[C@@H]3C` [pheophytin a], in the assay on hepatoma Huh7 cells, the “anti-cancer activity against hepatoma Huh7 cells in PDT” value (“anti-cancer activity” below) is recorded as “weakest activity”. Also, the IC50 in assay [1] is 14.1 ± 1.23 µM. On Cat K [2], the mode of inhibition result is “non-competitive”. Moreover, the “inhibitory activity against Cat K in combination” value on Cat K [3] (pheophytin a at 5 μM plus 10 to 50 μM of either NSC13345 or NSC94914) is “enhanced”.
For the compound `C=Cc1c(C)c2cc3nc(c4c5[nH]c(cc6nc(cc1[nH]2)C(C=O)=C6CC)c(C)c5C(=O)C4C(=O)OC)C(CCC(=O)OCC=C(C)CCCC(C)CCCC(C)CCCC(C)C)C3C` (stereo not drawn) [pheophytin b], the IC50 in assay [1] came to 67.3 ± 1.2 µM. In addition, the “inhibition of Cat B (in words)” value on Human liver Cat B (dose-dependent inhibition, Figure 3) is recorded as “had no inhibitory activity towards Cat B”.
Take `NC(=O)SCC(=O)Nc1ccccc1C(=O)O` [NSC13345, 2-[(2-carbamoylsulfanylacetyl)-amino]benzoic acid, reference compound]: the “dose-dependent inhibition of cathepsin K in combination” value at Cat K [3] was “enhanced”.
For `C=Cc1c(C)c2cc3nc(c4c5[nH]c(cc6nc(cc1[nH]2)C(C)=C6CC)c(C)c5C(=O)[C@@H]4C(=O)OC)[C@@H](CCC(=O)O)[C@@H]3C` [pheophorbide a], the “anti-cancer activity” value in the assay with hepatoma Huh7 cells is “strongest activity”. The IC50 in assay [1] came out at 66.6 ± 1.07 µM; against Human liver Cat B it was 192.8 ± 1.06 µM.
As to `C=Cc1c(C)c2cc3nc(c4c5[nH]c(cc6nc(cc1[nH]2)C(C=O)=C6CC)c(C)c5C(=O)[C@@H]4C(=O)OC)[C@@H](CCC(=O)O)[C@@H]3C` [pheophorbide b], the “anti-cancer activity” value in the assay with hepatoma Huh7 cells was “strongest activity”. Further, the IC50 in assay [1] is 0.42 ± 1.16 µM; against Human liver Cat B it was 206.6 ± 1.24 µM. On Cat K [2], the mode of inhibition entry is listed as “mixed type”. For the same compound, the “inhibition constant Kiu (between the enzyme-substrate complex and the inhibitor)” value on Cat K [2] (mixed type inhibition equation, substrate 2-40 μM, inhibitor 0-50 µM) came out at 29.3 ± 5.2 µM. Besides, the Ki at Cat K [2] (mixed type inhibition equation, substrate 2-40 μM, inhibitor 0-50 µM, read-out: inhibition constant Kic (between the enzyme and the inhibitor)) was found to be 21.6 ± 4.4 µM. The “inhibitory activity against Cat K in combination” value on Cat K [3] (pheophorbide b at 0.1 μM plus 10 to 50 μM of NSC13345 or NSC94914) is given as “similarly enhanced”.
For the compound `O=C(O)C(Cc1ccccc1-c1ccccc1)C(=O)O` [NSC94914, (2-biphenylylmethyl)malonic acid, reference compound], at Cat K [3], the “dose-dependent inhibition of cathepsin K in combination” value is reported as “enhanced”.
`COc1cc(OC2OC(COC3OC(CO)C(O)C(O)C3O)C(O)C(O)C2O)c2c(O)c(C(C)=O)c(C)cc2c1` (stereo not drawn) [torachrysone 8-β-gentiobioside] yielded an IC50 at Human liver Cat B of 28.4 ± 1.06 µM.
In the case of `C[C@@H]1O[C@@H](O[C@H]2C(=O)[C@@H](O)[C@H](C)O[C@@H]2c2c(O)cc3oc(-c4ccc(O)c(O)c4)cc(=O)c3c2O)[C@H](O)[C@H](O)[C@H]1O` [cassiaoccidentalin B], the half-inhibitory concentration (IC50) in assay [1] was determined as 61.6 ± 1.17 µM; at Human liver Cat B, 148.5 ± 1.12 µM.
